Marks after values point to notes of the source that are not given here.
Tests used:
[1] = target: T1, Cyp450 1A2 (Homo sapiens, UniProt P05177); assay: Cyp450 inhibition, 1A2; assay type: in vitro ADME; settings: isoform 1A2
T1 sequence (P05177 1-516): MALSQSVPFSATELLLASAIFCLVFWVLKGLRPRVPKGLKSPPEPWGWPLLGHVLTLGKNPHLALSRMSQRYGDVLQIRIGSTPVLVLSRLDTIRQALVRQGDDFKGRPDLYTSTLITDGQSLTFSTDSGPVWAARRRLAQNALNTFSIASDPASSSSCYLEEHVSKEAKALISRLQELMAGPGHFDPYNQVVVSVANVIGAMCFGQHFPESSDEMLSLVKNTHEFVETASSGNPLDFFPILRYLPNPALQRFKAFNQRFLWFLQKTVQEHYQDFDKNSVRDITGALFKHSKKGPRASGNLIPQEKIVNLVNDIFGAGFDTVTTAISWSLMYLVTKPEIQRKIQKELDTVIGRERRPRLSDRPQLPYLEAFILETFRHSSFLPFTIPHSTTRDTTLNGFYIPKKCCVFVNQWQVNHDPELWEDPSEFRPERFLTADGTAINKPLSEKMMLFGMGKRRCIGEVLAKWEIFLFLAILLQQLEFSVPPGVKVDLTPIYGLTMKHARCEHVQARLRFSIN

[2] = target: T2, RARγ (Mus musculus, UniProt P18911); assay: RAR gamma transactivation assay (gal4-RAR LBD fusion, luciferase reporter, COS-7 cells); assay type: cell-based; settings: mouse RAR ligand binding domain; Tables 1 and 4; read-out: γ EC50
T2 construct: expressed in transfected cells; host or cells: COS-7
T2 sequence (P18911 185-419 limits assumed): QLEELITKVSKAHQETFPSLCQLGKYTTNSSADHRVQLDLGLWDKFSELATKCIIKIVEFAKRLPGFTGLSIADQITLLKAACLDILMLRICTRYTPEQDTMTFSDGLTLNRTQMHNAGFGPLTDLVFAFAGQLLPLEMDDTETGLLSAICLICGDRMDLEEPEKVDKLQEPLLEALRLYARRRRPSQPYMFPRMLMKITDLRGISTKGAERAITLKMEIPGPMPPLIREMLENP
Protocol: (§1) Compounds were tested in transactivation assays at the RAR α, β and γ receptors.
(§2) Transactivation assays for RAR alpha, beta and gamma receptors:
(§3) Transcriptional transactivation assays have been performed with gal4 fusion receptor constructs, created using each of the mouse RAR ligand-binding domains, co-transfected with the pFR-luc (Stratagene) reporter construct in COS-7 cells.
(§4) Briefly, on day one, 96 well plates were seeded with 8000 cells per well then left to recover overnight. On day two, the cells were co-transfected with 100ng of reporter plasmid and 10ng of the appropriate receptor plasmid per well using lipofectamine (Invitrogen). On day three, the lipofectamine containing media was replaced by a DMEM without phenol red, followed by the addition of novel compounds dissolved in 1µl of DMSO to each well’s 100µl total volume. Finally, on day four, the cells were lysed and their luciferase substrate was provided by the BrightGlo reagent (Promega), the plates were then read on the MicroBeta TriLux (Perkin Elmer).
(§5) Data for test compounds are quoted as EC50 values. Where replicate data has been generated the data are quoted as the mean EC50 from the separate experiments.

[3] = target: Cyp450 2D6 (Homo sapiens, UniProt P10635); assay: Cyp450 inhibition, 2D6; assay type: in vitro ADME; settings: isoform 2D6
[4] = target: T3, RARβ (Mus musculus, UniProt P22605); assay: RAR beta transactivation assay (gal4-RAR LBD fusion, luciferase reporter, COS-7 cells); assay type: cell-based
T3 construct: expressed in transfected cells; host or cells: COS-7
T3 sequence (P22605 210-444 limits assumed): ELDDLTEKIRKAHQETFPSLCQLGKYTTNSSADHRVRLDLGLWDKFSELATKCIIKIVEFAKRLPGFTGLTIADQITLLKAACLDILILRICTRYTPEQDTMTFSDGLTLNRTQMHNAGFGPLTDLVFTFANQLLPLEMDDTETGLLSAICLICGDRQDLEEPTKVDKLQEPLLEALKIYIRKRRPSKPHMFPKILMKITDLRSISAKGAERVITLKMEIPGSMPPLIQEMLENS
Protocol: as §1, §2, §3, §4, §5

[5] = Pharmacokinetics in rat; assay type: in vivo; parameters: Volume distribution ss: unit not given here
[6] = target: T4, RARα (Mus musculus, UniProt P11416); assay: RAR alpha transactivation assay (gal4-RAR LBD fusion, luciferase reporter, COS-7 cells); assay type: cell-based; settings: mouse RAR ligand binding domain; usually three experiments; read-out: α EC50
T4 construct: expressed in transfected cells; host or cells: COS-7
T4 sequence (P11416 183-417 limits assumed): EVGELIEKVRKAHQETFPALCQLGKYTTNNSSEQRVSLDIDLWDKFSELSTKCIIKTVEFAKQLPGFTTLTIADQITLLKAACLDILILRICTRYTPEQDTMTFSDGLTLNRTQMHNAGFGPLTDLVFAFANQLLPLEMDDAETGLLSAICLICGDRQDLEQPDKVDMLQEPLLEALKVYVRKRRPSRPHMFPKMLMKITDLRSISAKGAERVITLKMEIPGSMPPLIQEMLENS
Protocol: as §1, §2, §3, §4, §5

[7] = tested on: CHO-K1 cells; assay: In vitro micronucleus test; assay type: cell-based; settings: presence and absence of S9
Excerpt: Similar, negative results were obtained in an in vitro micronucleus test in CHO-K1 cells, in both the presence and absence of S9.

[8] = target: Cyp450 2C19 (Homo sapiens, UniProt P33261); assay: Cyp450 inhibition, 2C19; assay type: in vitro ADME; settings: isoform 2C19
[9] = Human microsomal stability (Clint); assay type: in vitro ADME
[10] = tested on: HEPG2 cell; assay: HEPG2 cell toxicity assay; assay type: cell-based; settings: highest concentration tested 50 μM
[11] = target: Cyp450 3A4 (Homo sapiens, UniProt P08684); assay: Cyp450 inhibition, 3A4; assay type: in vitro ADME; settings: isoform 3A4
[12] = tested on: bacterial; assay: Bacterial cytotoxicity tests; assay type: cell-based; settings: up to 100 μM
[13] = tested on: P-gp (MDR1); assay: Bi-directional permeability in MDR1-MDCK cell line; assay type: in vitro ADME; settings: dog; MDR1-MDCK cell line, bi-directional; read-out: MDCK asymmetry ratio (efflux ratio)
Excerpt: (§6) The potential drug candidate 10 has excellent physico-chemical properties.

[14] = Bi-directional permeability in MDR1-MDCK cell line; assay type: in vitro ADME; settings: dog; MDR1-MDCK cell line
Excerpt: as §6

[15] = tested on: MDR1-MDCK cell line; assay: Bi-directional permeability in MDR1-MDCK cell line; assay type: in vitro ADME
Excerpt: as §6

Chain of Cyp450 2C19 (P33261 whole entry, canonical isoform): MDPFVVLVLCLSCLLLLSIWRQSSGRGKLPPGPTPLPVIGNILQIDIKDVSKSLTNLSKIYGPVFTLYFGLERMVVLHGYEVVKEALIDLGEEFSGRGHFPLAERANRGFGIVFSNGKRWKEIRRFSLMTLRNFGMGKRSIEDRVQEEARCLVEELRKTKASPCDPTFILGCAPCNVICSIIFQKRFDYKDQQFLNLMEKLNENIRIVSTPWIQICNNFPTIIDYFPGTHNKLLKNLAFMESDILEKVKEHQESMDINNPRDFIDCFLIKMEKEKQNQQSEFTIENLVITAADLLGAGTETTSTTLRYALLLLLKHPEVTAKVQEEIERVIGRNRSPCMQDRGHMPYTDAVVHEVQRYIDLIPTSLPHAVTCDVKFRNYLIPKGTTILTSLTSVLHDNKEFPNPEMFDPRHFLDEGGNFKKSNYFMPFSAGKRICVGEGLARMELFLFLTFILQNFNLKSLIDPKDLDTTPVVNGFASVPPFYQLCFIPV
Chain of Cyp450 3A4 (P08684 whole entry, canonical isoform): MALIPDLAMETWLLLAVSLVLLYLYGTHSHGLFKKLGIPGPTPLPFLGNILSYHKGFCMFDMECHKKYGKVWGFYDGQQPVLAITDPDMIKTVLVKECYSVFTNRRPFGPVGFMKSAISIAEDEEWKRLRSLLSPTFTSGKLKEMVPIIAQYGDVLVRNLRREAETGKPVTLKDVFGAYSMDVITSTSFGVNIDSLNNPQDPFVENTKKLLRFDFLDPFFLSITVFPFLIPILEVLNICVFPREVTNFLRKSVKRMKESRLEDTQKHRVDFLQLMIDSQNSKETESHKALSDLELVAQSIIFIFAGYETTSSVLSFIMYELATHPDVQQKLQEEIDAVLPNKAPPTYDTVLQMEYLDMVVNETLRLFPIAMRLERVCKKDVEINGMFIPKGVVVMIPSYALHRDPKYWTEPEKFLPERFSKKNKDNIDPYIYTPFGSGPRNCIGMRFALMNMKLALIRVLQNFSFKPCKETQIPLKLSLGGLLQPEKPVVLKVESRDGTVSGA
Chain of Cyp450 2D6 (P10635 whole entry, the tested form may be a part, canonical isoform): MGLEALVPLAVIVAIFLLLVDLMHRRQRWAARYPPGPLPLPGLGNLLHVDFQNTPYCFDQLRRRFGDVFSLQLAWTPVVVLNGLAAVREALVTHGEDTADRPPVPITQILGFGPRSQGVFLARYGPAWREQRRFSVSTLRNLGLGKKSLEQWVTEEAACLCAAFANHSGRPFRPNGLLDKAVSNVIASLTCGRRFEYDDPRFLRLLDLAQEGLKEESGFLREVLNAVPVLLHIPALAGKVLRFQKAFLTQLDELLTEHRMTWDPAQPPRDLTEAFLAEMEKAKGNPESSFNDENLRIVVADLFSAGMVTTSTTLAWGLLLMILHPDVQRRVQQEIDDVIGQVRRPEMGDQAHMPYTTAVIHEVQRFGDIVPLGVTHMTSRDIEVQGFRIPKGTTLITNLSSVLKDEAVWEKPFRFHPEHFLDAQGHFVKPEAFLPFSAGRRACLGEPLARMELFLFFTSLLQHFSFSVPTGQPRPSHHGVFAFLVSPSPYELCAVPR

Cc1ccc(C)c2oc(-c3nc(-c4ccc(C(=O)O)cc4)no3)cc12 [Compound 10, 4-(5-(4,7-dimethylbenzofuran-2-yl)-1,2,4-oxadiazol-3-yl)benzoic acid]
IC50 [1]: > 25 µM | EC50 [2]: 11 nM | IC50 [3]: > 25 µM | Fold selectivity for β over α ([4]; EC50 ratio of α to β, mouse, Tables 1 and 4): 13 | Fold selectivity for β over γ ([4]; EC50 ratio of γ to β, mouse): 5.6 | agonist behaviour (full/partial) relative to ATRA ([4]; maximum upper asymptote within 20% of that found for ATRA): full agonist | EC50 ([4]; mouse RAR ligand binding domain, usually three experiments, read-out: β EC50): 1.9 nM | clearance ([5]; blood, rat, iv dose 0.5 mg/kg): 3.7 mL/min/kg | Tmax ([5]; in vivo, rat, oral doses of 1, 3 and 10 mg/kg): 1.7 h | t1/2 ([5]; rat): 1.4 h | Volume distribution ss ([5]; rat, iv dose 0.5 mg/kg): 0.41 | Fraction absorbed ([5]; rat, mean of 1, 3 and 10 mg/kg oral in comparison to iv 0.5 mg/kg): 80 ^b % | oral bioavailability ([5]; rats): > 40% | CNS penetration: brain tissue compared to plasma ([5]; rats, 8 h after dosing orally): nearly equivalent amounts detected in brain tissue when compared to plasma | EC50 [6]: 26 nM | in vitro micronucleus test result [7]: negative | IC50 [8]: > 25 µM | stability in human microsomes (in words) [9]: very high stability | microsomal CLint ([9]; human microsomes, 37 °C, NADPH, 45 min, mean of 5 experiments): < 1 µL/min/mg | HEPG2 cell toxicity alerts [10]: completely devoid of alerts | IC50 [11]: > 25 µM | bacterial cytotoxicity [12]: inactive | efflux ratio [13]: 0.8 | Papp [14]: 28 ×10⁻⁶ cm/s | permeability (in words) [15]: good permeability | MDCK asymmetry ratio (efflux ratio) ([15]; MDR1-MDCK cell line, bi-directional): close to unity
